Literature values, collected in article PMC8405607 (British Journal of Cancer, 2021).

Columns and labels:
[1] = parameters: method as in PMID 24309210, PMID 23084521, PMID 28240971; conditions: liposarcoma trial; cited from earlier work
[2] = test system: p53; parameters: method as in PMID 21643018; conditions: prolonged exposure; cited from earlier work

Compound: CCOc1cc(C(C)(C)C)ccc1C1=N[C@@](C)(c2ccc(Cl)cc2)[C@@](C)(c2ccc(Cl)cc2)N1C(=O)N1CCN(CCCS(C)(=O)=O)CC1 [RG7112]
- patients experiencing grade 4 neutropenia [1]: 30%
- patients experiencing prolonged grade 4 thrombocytopenia [1]: 15%

Compound: COc1ccc(C2=N[C@@H](c3ccc(Cl)cc3)[C@@H](c3ccc(Cl)cc3)N2C(=O)N2CCNC(=O)C2)c(OC(C)C)c1 [Nutlin-3a]
- p53 mutations [2]: increased incidence of p53 mutations
